Laboratory results reported in the supplement of paper PMC10949913.

What was measured:
Settings in all cases: 48 h
NCI-H295R [1] = assay: AC50 viability; higher = less potent
Summary of the method: (§1)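 Three adrenocortical carcinoma cell lines were seeded at 500–1,000 cells/well in 5 µL medium in 1,536-well plates. 23 nL of each MIPE 5.0 library compound was added at 11 concentrations. After 48 h (per the protocol name), CellTiter-Glo was added for 15 minutes at room temperature and luminescence was read. Signals were normalised per plate to vehicle and empty-well controls. AC50 and area under the curve came from fitted concentration-response curves, keeping only inhibitory or non-responding curve classes.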

CU-ACC1 = assay: area under concentration-response curve (viability) (AUC (a.u.)); higher = less active
Summary of the method: as §1

NCI-H295R [2] = assay: as above
Summary of the method: as §1

Structure (SMILES) | AC50 viability (NCI-H295R [1]) | area under concentration-response curve (CU-ACC1) | area under concentration-response curve (NCI-H295R [2])
CC1(C)C(=O)N(c2ccc(C#N)c(C(F)(F)F)c2)C(=S)N1Cc1ccc(-c2c[nH]nn2)cc1 | 20.9 µM | 472 | 483
C[C@@H]1CCNC(=O)c2cc3ccc(C(=O)Nc4nc5ccccc5n4CCCN(C)C)cc3n21 | 18.6 µM | 513 | 553
CCN(CC)CCCCNc1ncc2c(n1)N(C)C(=O)N(c1c(Cl)c(OC)cc(OC)c1Cl)C2 | 16.6 µM | 520 | 524
CCN(CC)C(=O)C1=CC=C(C=C1)C/2=C/C3(CCNCC3)OC4=CC=CC(=C24)O | 20.9 µM |  | 404
COc1c(C)c2c(c(O)c1C/C=C(\C)CCC(=O)OCCN1CCOCC1)C(=O)OC2 | 0.468 µM |  | 429
CCOC(=O)[C@@H](N)Cc1ccc(-c2cc(O[C@H](c3ccc(Cl)cc3-n3ccc(C)n3)C(F)(F)F)nc(N)n2)cc1 | 20.9 µM |  | 506
Cc1ncc(NC(=O)c2ccc(CN3CCN(C)CC3)c(C(F)(F)F)c2)cc1Nc1nccc(-c2cccnc2)n1 | 23.5 µM |  | 493
Cc1cncc2cccc([S+](=O)([O-])N3CCCN(C(=O)CN)C[C@@H]3C)c12 | 16.6 µM | 465 | 433
CCN(C)[S+](=O)([O-])Nc1ccc(F)c(C(=O)c2c[nH]c3ncc(-c4cnc(C5CC5)nc4)cc23)c1F | 18.6 µM |  | 502
CSc1ccc(C(=O)/C=C/c2cc(C)c(OC(C)(C)C(=O)O)c(C)c2)cc1 | 48.1 µM | 540 | 571
CC[C@]12\C=C/CN3CC[C@]4([C@@H](N(C)C5=CC(=C(C=C45)[C@]6(C[C@H]7C[C@H](CN(C7)CC8=C6[NH]C9=C8C=CC=C9)C(C)(F)F)C(=O)OC)OC)[C@](O)([C@@H]1OC(C)=O)C(=O)OC)[C@H]23 | 0.698 µM | 538 | 527
NCC(=O)Nc1ccc(-n2nc(C(F)(F)F)cc2-c2ccc3c(ccc4ccccc43)c2)cc1 | 23.5 µM |  | 551
Cc1ccc(Sc2ccccc2N2CCNCC2)c(C)c1 | 20.9 µM |  | 455
CC(C)[C@](O)(c1ccc2cc(OC(F)F)c(OC(F)F)cc2c1)c1c[nH]nn1 | 23.5 µM | 492 | 532
CCCCc1oc2ccccc2c1C(=O)c1cc(I)c(OCCN(CC)CC)c(I)c1 | 23.5 µM |  | 479
CN(C)CCNC(=O)NC[C@H]1CC[C@@H]2[C@H](O1)c1cc(C(F)(F)F)ccc1N[C@H]2c1ccccc1 | 5.9 µM |  | 437
COc1cc(Oc2ccnc3cc(OC)c(OC)cc23)ccc1NC(=O)NC(C)c1nccs1 (stereo unspecified) | 14.8 µM |  | 540
Cc1ccc([C@@H]2O[C@H](CO)[C@@H](O)[C@H](O)[C@H]2O)cc1Cc1ccc(-c2ccc(F)cc2)s1 | 23.5 µM |  | 521
COc1ccc(C(=O)c2c(C)n(CCN3CCOCC3)c3cc(I)ccc23)cc1 | 8.33 µM | 317 | 392
Cc1ccc(-c2nn(C(C)(C)CNC(=O)c3ccncc3)c3ncnc(N)c23)cc1 | 16.6 µM | 515 | 512
Cc1ccc(Nc2nnc(Cc3ccncc3)c3ccccc23)cc1Br | 18.6 µM |  | 438
